From ChEMBL document CHEMBL6083204, “Synthesis of a celastrol derivative as a cancer stem cell inhibitor through regulation of the STAT3 pathway for treatment of ovarian cancer” (RSC Med Chem, 2024)
Active and inactive are the calls of the source. The calls are words filed in the database; no cut-off is given here.

Experiments:
A2780 [1] = assay: Induction of cell cycle arrest in human A2780 cells assessed as accumulation of cells at S phase at 0.8 uM incubated for 24 hrs by BrdU staining based flow cytometry (reference value: 51.6 %); type: functional
A2780 [2] = assay: Induction of apoptosis in human A2780 cells assessed as viable cells at 0.8 uM incubated for 24 hrs by Annexin V-FITC/7-AAD staining based flow cytometry (reference value: 95 %); type: functional; settings: read-out: Activity
SK-OV-3 [3] = assay: Induction of apoptosis in human SK-OV-3 cells assessed as late apoptotic cells at 0.2 uM incubated for 24 hrs by Annexin V-FITC/7-AAD staining based flow cytometry (reference value: 3.7 %); type: functional
[4] = molecular target: Signal transducer and activator of transcription 3 (Homo sapiens) (UniProt P40763); assay: Inhibition of STAT3 in human A2780 cells assessed as downregulation of STAT3 expression in nuclei at 0.2 uM incubated for 24 hrs by Hoechst33342 staining based immunofluorescence assay; type: cell-based
Sequence of Signal transducer and activator of transcription 3 (Homo sapiens) (P40763 whole entry): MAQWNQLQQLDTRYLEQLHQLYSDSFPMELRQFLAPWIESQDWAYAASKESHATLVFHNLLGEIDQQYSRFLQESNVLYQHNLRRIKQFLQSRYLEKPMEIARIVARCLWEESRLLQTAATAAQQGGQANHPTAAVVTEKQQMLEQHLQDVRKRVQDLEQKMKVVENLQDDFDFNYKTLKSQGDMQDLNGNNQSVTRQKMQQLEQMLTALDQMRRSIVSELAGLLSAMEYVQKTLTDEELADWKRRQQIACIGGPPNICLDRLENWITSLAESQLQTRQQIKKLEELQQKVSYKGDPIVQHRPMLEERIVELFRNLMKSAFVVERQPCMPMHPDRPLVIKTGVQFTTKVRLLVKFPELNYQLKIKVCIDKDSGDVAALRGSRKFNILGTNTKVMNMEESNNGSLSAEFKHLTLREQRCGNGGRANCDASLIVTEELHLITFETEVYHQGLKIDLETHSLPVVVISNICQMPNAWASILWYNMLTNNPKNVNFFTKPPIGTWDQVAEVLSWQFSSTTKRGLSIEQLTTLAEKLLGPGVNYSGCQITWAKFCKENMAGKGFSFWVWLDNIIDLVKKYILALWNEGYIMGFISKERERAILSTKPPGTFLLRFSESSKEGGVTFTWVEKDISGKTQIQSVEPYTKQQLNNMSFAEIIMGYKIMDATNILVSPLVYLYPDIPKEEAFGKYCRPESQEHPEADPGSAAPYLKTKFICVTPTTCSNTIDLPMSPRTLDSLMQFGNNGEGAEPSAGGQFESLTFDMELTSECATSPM

SK-OV-3 [5] = assay: Induction of cell cycle arrest in human SK-OV-3 cells assessed as reduction of CDK2 expression at 0.4 uM incubated for 24 hrs by flow cytometry (reference value: 94.4 %); type: functional; set-up: scale not given: the % may be the effect or the level left
A2780 [6] = assay: Inhibition of human A2780 cells spheroid formation assessed as reduction in spheroid size at 0.1 to 0.4 uM incubated for 10 days by inverted microscopic analysis; type: functional, cell-based; settings: dose 0.1-0.4 µM, time 10.0 day
SK-OV-3 [7] = assay: Antitumor activity against human SK-OV-3 cells xenografted in BALB/c mouse assessed as reduction in tumor weight at 2 mg/kg,ip administrated for 21 consecutive days; type: functional, organism-based
SK-OV-3 [8] = assay: Induction of cell cycle arrest in human SK-OV-3 cells assessed as reduction of Cyclin D1 expression at 0.2 uM incubated for 24 hrs by flow cytometry (reference value: 93.8 %); type: functional; set-up: scale not given: the % may be the effect or the level left
SK-OV-3 [9] = assay: Antiproliferative activity against human SK-OV-3 cells assessed as decrease in ALDH positive cells at 0.2 uM incubated for 24 hrs by ALDEFLUOR staining based flow cytometry (reference value: 3.83 %); type: functional; set-up: scale not given: the % may be the effect or the level left
[10] = Cytotoxicity against human IOSE80 cells assessed as inhibition of cell growth incubated for 72 hrs by MTT assay; type: toxicity, cell-based
A2780 [11] = assay: Induction of cell cycle arrest in human A2780 cells assessed as accumulation of cells at G2/M phase at 0.8 uM incubated for 24 hrs by BrdU staining based flow cytometry (reference value: 6.2 %); type: functional
[12] = molecular target: Signal transducer and activator of transcription 3 (Homo sapiens) (UniProt P40763); assay: Inhibition of STAT3 in human A2780 cells assessed as downregulation of STAT3 phosphorylation at Tyr705 residue in nuclei at 0.2 uM incubated for 24 hrs by Hoechst33342 staining based immunofluorescence assay; type: cell-based
SK-OV-3 [13] = assay: Induction of cell cycle arrest in human SK-OV-3 cells assessed as reduction of CDK4 expression at 0.4 uM incubated for 24 hrs by flow cytometry (reference value: 66.8 %); type: functional; set-up: scale not given: the % may be the effect or the level left
[14] = molecular target: Signal transducer and activator of transcription 3 (Homo sapiens) (UniProt P40763); assay: Inhibition of STAT3 in human SK-OV-3 cells assessed as downregulation of cytoplasmic STAT3 phosphorylation at Ser727 residue at 0.2 uM incubated for 24 hrs by Hoechst33342 staining based immunofluorescence assay; type: cell-based
A2780 [15] = assay: Induction of apoptosis in human A2780 cells assessed as necrotic cells at 0.2 uM incubated for 24 hrs by Annexin V-FITC/7-AAD staining based flow cytometry (reference value: 1 %); type: functional
SK-OV-3 [16] = assay: Induction of cell cycle arrest in human SK-OV-3 cells assessed as accumulation of cells at G0/G1 phase at 0.8 uM incubated for 24 hrs by BrdU staining based flow cytometry (reference value: 59.8 %); type: functional
[17] = molecular target: Tyrosine-protein kinase JAK1 (Homo sapiens) (UniProt P23458); assay: Inhibition of JAK1 in human SK-OV-3 cells assessed as downregulation of JAK1 expression at 0.1 to 0.4 uM incubated for 24 hrs by Western blotting analysis; type: cell-based; settings: dose 0.1-0.4 µM
Sequence of Tyrosine-protein kinase JAK1 (Homo sapiens) (P23458 whole entry): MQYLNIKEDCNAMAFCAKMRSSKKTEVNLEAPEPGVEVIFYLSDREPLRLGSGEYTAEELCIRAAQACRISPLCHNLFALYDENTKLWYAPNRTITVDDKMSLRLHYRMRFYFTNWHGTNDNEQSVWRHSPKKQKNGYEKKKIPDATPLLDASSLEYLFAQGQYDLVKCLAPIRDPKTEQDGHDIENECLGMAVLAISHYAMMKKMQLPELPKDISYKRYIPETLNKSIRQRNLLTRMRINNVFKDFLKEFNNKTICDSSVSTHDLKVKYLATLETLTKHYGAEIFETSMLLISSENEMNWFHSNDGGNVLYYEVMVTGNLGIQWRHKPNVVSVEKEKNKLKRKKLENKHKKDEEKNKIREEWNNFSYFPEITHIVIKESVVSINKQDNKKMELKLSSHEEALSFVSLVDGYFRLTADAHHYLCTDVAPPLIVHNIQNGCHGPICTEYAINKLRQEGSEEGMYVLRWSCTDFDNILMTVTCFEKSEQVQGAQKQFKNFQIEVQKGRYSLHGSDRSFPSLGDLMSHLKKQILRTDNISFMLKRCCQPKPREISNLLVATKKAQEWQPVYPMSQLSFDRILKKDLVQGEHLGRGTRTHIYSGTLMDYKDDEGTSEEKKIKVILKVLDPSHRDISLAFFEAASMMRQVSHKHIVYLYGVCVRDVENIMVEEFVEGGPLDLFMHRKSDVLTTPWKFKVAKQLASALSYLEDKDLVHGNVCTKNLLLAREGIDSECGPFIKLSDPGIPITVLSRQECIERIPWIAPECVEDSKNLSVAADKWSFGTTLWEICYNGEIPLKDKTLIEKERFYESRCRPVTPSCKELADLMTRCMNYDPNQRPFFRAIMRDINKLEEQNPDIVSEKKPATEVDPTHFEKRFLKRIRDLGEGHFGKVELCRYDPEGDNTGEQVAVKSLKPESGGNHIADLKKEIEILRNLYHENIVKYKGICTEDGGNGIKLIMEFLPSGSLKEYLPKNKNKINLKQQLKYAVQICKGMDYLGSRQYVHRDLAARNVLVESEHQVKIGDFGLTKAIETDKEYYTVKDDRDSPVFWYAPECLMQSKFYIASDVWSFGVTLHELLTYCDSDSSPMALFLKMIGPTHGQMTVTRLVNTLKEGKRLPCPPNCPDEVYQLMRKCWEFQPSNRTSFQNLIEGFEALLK

SK-OV-3 [18] = assay: Induction of cell cycle arrest in human SK-OV-3 cells assessed as accumulation of cells at S phase at 0.2 uM incubated for 24 hrs by BrdU staining based flow cytometry (reference value: 33.6 %); type: functional
[19] = Toxicity in BALB/c mouse xenografted with human SK-OV-3 cells assessed as behavioral change at 2 to 5 mg/kg,ip administrated for 21 consecutive days; type: organism-based; settings: in vivo, dose 2-5 mg/kg
Mitochondrial membrane [20] = assay: Induction of mitochondrial membrane potential loss in human SK-OV-3 cells at 0.1 uM incubated for 24 hrs by JC-1 staining based flow cytometry (reference value: 73.6 %)
Mitochondrial membrane [21] = assay: Induction of mitochondrial membrane potential loss in human A2780 cells at 0.4 uM incubated for 24 hrs by JC-1 staining based flow cytometry (reference value: 81 %)
SK-OV-3 [22] = assay: Induction of cell cycle arrest in human SK-OV-3 cells assessed as accumulation of cells at G0/G1 phase at 0.4 uM incubated for 24 hrs by BrdU staining based flow cytometry (reference value: 59.8 %); type: functional
SK-OV-3 [23] = assay: Induction of apoptosis in human SK-OV-3 cells assessed as necrotic cells at 0.4 uM incubated for 24 hrs by Annexin V-FITC/7-AAD staining based flow cytometry (reference value: 0.6 %); type: functional
A2780 [24] = assay: Induction of apoptosis in human A2780 cells assessed as increase in caspase-3 activity at 0.8 uM incubated for 24 hrs by flow cytometry (reference value: 1.5 %); type: functional
[25] = molecular target: Signal transducer and activator of transcription 3 (Homo sapiens) (UniProt P40763); assay: Inhibition of STAT3 in human SK-OV-3 cells assessed as downregulation of Mcl-1 expression at 0.1 to 0.4 uM incubated for 24 hrs by Western blotting analysis; type: cell-based; settings: dose 0.1-0.4 µM
A2780 [26] = assay: Induction of ROS production in human A2780 cells assessed as increase in fluorescence intensity incubated for 24 hrs by DCFH-DA staining based flow cytometry; type: functional, cell-based
A2780 [27] = assay: Induction of apoptosis in human A2780 cells assessed as necrotic cells at 0.4 uM incubated for 24 hrs by Annexin V-FITC/7-AAD staining based flow cytometry (reference value: 1 %); type: functional
[28] = molecular target: Signal transducer and activator of transcription 3 (Homo sapiens) (UniProt P40763); assay: Inhibition of STAT3 in human SK-OV-3 cells assessed as downregulation of cytoplasmic STAT3 expression at 0.2 uM incubated for 24 hrs by Hoechst33342 staining based immunofluorescence assay; type: cell-based
SK-OV-3 [29] = assay: Induction of apoptosis in human SK-OV-3 cells assessed as necrotic cells at 0.2 uM incubated for 24 hrs by Annexin V-FITC/7-AAD staining based flow cytometry (reference value: 0.6 %); type: functional
[30] = molecular target: Signal transducer and activator of transcription 3 (Homo sapiens) (UniProt P40763); assay: Inhibition of STAT3 in human SK-OV-3 cells assessed as downregulation of STAT3 phosphorylation at Ser727 residue in nuclei at 0.2 uM incubated for 24 hrs by Hoechst33342 staining based immunofluorescence assay; type: cell-based
SK-OV-3 [31] = assay: Induction of apoptosis in human SK-OV-3 cells assessed as early apoptotic cells at 0.8 uM incubated for 24 hrs by Annexin V-FITC/7-AAD staining based flow cytometry (reference value: 1.6 %); type: functional
SK-OV-3 [32] = assay: Induction of cell cycle arrest in human SK-OV-3 cells assessed as accumulation of cells at G2/M phase at 0.4 uM incubated for 24 hrs by BrdU staining based flow cytometry (reference value: 6.3 %); type: functional

Question: Which results are given for `CC1=C(O)C(=O)C=C2C1=CC=C1[C@@]2(C)CC[C@@]2(C)[C@@H]3C[C@](C)(C(=O)N4CCNCC4)CC[C@]3(C)CC[C@]12C`?
Answer: Activity (A2780 [1]): 6.2%; viability at 0.8 µM (A2780 [2]): 24.5%; Activity (SK-OV-3 [3]): 7.8%; inhibition [4]: Active; Activity (SK-OV-3 [5]): 80.7%; inhibition (A2780 [6]): Active; Activity (SK-OV-3 [7]): Active; Activity (SK-OV-3 [8]): 90.3%; Activity (SK-OV-3 [9]): 2.07%; IC50 at 72 h [10]: 1010 nM; Activity (A2780 [11]): 24.3%; inhibition [12]: Active; Activity (SK-OV-3 [13]): 70.6%; inhibition [14]: Active; Showed Mild Inhibition Activity; Activity (A2780 [15]): 1%; Activity (SK-OV-3 [16]): 47.7%; inhibition [17]: Active; Activity (SK-OV-3 [18]): 33.8%; Activity [19]: Non-toxic; Activity (Mitochondrial membrane [20]): 70.7%; Activity (Mitochondrial membrane [21]): 49.5%; Activity (SK-OV-3 [22]): 49.2%; Activity (SK-OV-3 [23]): 0.9%; Activity (A2780 [24]): 70.7%; inhibition [25]: Active; Activity (A2780 [26]): Dose-dependent-effect; Activity (A2780 [27]): 2.3%; inhibition [28]: Active; Showed Mild Inhibition Activity; Activity (SK-OV-3 [29]): 0.7%; inhibition [30]: Active; Activity (SK-OV-3 [31]): 33.2%; Activity (SK-OV-3 [32]): 7.4%
